Experimental data published in BindingDB's records for doi:10.1021/jm00100a033 (Roche Research Center, 1992).
pIC50: −log10 of the molar value. *1 amine or outer side, *2 acyl side, *3 side chain or, on linkers, in order; H or OH if unused. Where a SMILES comes first, the peptide text is derived from it. Side-chain parts run from the residue outwards. [ ]: non-standard residue; d: D form. The star is where a group is joined. ξ: configuration not given here. Thz(5,5-Me2) = CC1(C)SCN[C@@H]1C(=O)O; NH(2-Me-phenyl) = Cc1ccccc1N*; ξF = NC(Cc1ccccc1)C(=O)O; Boc = CC(C)(C)OC(=O)*; CO = O=C([*:1])[*:2]

Target: Gastrin/cholecystokinin type B receptor (Bos taurus)
Experiment: Inhibitory activity against cholecystokinin type B receptor from bovine striatal binding assay

## Cc1ccccc1NC(=O)NCCCC[C@H](NC(=O)[C@H](Cc1c[nH]c2ccccc12)NC(=O)OC(C)(C)C)C(=O)N1CSC(C)(C)[C@H]1C(=O)NC(Cc1ccccc1)C(N)=O (stereo partly specified) [[1-[1-[4-(1-Carbamoyl-2-phenyl-ethylcarbamoyl)-5,5-dimethyl-thiazolidine-3-carbonyl]-5-(3-o-tolyl-ureido)-pentylcarbamoyl]-2-(1H-indol-3-yl)-ethyl]-carbamic acid tert-butyl ester] (Boc-WK([CO-NH(2-Me-phenyl)])[Thz(5,5-Me2)][ξF]-NH2)
  pIC50: 5.13
